Source: patent US9637516B2, “Betulinic acid proline derivatives as HIV inhibitors” (HETERO RESEARCH FOUNDATION, priority 2012, dated 2017)

Experiments:
[1] = test system: HIV-1 strain 92HT599; assay: Antiviral activity: p24 estimation in MT2 cells infected with HIV-1 strain 92HT599; format: cell-based; conditions: for inhibition at 0.1 µM: Human immunodeficiency virus 1, 100 nM; for inhibition at 0.1 µM / inhibition at 1 µM: HIV-1 92HT599, p24, ~96 hours; for inhibition at 1 µM: Human immunodeficiency virus 1, 1000 nM; for IC50: Human immunodeficiency virus 1, HIV-1 92HT599, p24
Description: MT2 cells were infected with HIV-1 strain 92HT599 (10 TCID 50/30000 cells). The infected cells were plated at the concentration of ˜30 000 cells per well in 96 well plate. Test compound was added to the micro plate in defined format with the final concentration of DMSO (vehicle) is not more than 1%. Incubation was carried out in CO2 incubator for ˜96 hours for viral infection. At the end of incubation period an aliquot from each well was taken for p24 estimation. The quantitation of p24 is an index for antiviral activity of the compound. Percent inhibition was calculated with reference to control values (vehicle controls). p-24 estimation was carried out using Advance biosciences kit as per the procedure detailed by supplier.

[2] = Single dose oral pharmacokinetic study; format: in vivo, mice; conditions: mouse, plasma
Description: The test item was administered through oral route to animals (rat/mice) at 30 mg/kg dose in a suitable vehicle at 10 ml/kg dose volume. Blood samples (˜50 uL at each time point) were collected from retro-orbital plexus using K3 EDTA as anticoagulant in eppendorf tubes at defined time intervals under light ether anesthesia. The samples were centrifuged at 3500×g to separate plasma and stored at −80° C. until analysis.
Sample analysis: Test samples were analyzed using LC-MS-MS after developing fit-for-purpose method for each of test compound.

[3] = Mice oral PK @30 mg/kg (Table 3)
[4] = Mice oral PK @30 mg/kg (Table 4)

Structure (SMILES) | inhibition at 0.1 µM [1] | inhibition at 1 µM [1] | IC50 [1] | AUC(0-t) [2, 3] | Cmax [2, 3] | Tmax [2, 3] | AUC(0-inf) [2, 4] | AUC(0-t) [2, 4] | Cmax [2, 4] | half-life [2, 4]
C=C(C)[C@@H]1CC[C@]2(C(=O)N3CCCC3c3ncc(-c4ccc(C#N)cc4)[nH]3)CC[C@]3(C)[C@H](CC[C@@H]4[C@@]5(C)CC[C@H](OC(=O)[C@H]6C[C@@H](C(=O)O)C6(C)C)C(C)(C)[C@@H]5CC[C@]43C)[C@@H]12 (some centres unmarked) [Compound 19] | 86% | 100% | – | – | – | – | – | – | – | –
C=C(C)[C@@H]1CC[C@]2(C(=O)N3CCC[C@@H]3c3nc(-c4cccnc4)no3)CC[C@]3(C)[C@H](CC[C@@H]4[C@@]5(C)CC[C@H](OC(=O)CC(C)(C)CC(=O)O)C(C)(C)[C@@H]5CC[C@]43C)[C@@H]12 [Compound 4, 3,3-dimethyl-5-oxo-5-((1R,3aS,5aR,5bR,7aR,9S,11aR,11bR,13aR,13bR)-5a,5b,8,8,11a-pentamethyl-1-(prop-1-en-2-yl)-3a-((R)-2-(3-(pyridin-3-yl)-1,2,4-oxadiazol-5-yl)pyrrolidine-1-carbonyl)icosahydro-1H-cyclopenta[a]chrysen-9-yloxy)pentanoic acid] | 84% | 96% | 8.64 nM | 36.9 µg·h/mL | 4830 ng/mL | 2.5 h | – | – | – | –
C=C(C)[C@@H]1CC[C@]2(C(=O)N3CCC[C@H]3c3ncc(-c4ccc(F)cc4)[nH]3)CC[C@]3(C)[C@H](CC[C@@H]4[C@@]5(C)CC[C@H](OC(=O)CC(C)(C)C(=O)O)C(C)(C)[C@@H]5CC[C@]43C)[C@@H]12 [Compound 34, 4-(((1R,3aS,5aR,5bR,7aR,9S,11aR,11bR,13aR,13bR)-3a-((S)-2-(5-(4-fluorophenyl)-1H-imidazol-2-yl)pyrrolidine-1-carbonyl)-5a,5b,8,8,11a-pentamethyl-1-(prop-1-en-2-yl)icosahydro-1H-cyclopenta[a]chrysen-9-yl)oxy)-2,2-dimethyl-4-oxobutanoic acid] | – | – | 17 nM | – | – | – | 263 µg·h/mL | 224 µg·h/mL | 13300 ng/mL | 16.1 h
CC(C)(CC(=O)O)CC(=O)O[C@H]1CC[C@]2(C)[C@H]3CC[C@@H]4[C@H]5[C@H](C6(C)CC6)CC[C@]5(C(=O)N5CCCC5c5ncc(-c6cccnc6)[nH]5)CC[C@@]4(C)[C@]3(C)CC[C@H]2C1(C)C (some centres unmarked) [Compound 31] | – | – | 1.62 nM | – | – | – | 145 µg·h/mL | 136 µg·h/mL | 9300 ng/mL | 10.9 h
C=C(C)[C@@H]1CC[C@]2(C(=O)N3CCC[C@@H]3c3ncc(-c4ccccc4)[nH]3)CC[C@]3(C)[C@H](CC[C@@H]4[C@@]5(C)CC[C@H](OC(=O)C6CC(C(=O)O)C6(C)C)C(C)(C)[C@@H]5CC[C@]43C)[C@@H]12 (stereo partly drawn) [Compound 41, 2,2-dimethyl-3-((((1R,3aS,5aR,5bR,7aR,9S,11aR,11bR,13aR,13bR)-5a,5b,8,8,11a-pentamethyl-3a-((R)-2-(5-phenyl-1H-imidazol-2-yl)pyrrolidine-1-carbonyl)-1-(prop-1-en-2-yl)icosahydro-1H-cyclopenta[a]chrysen-9-yl)oxy)carbonyl)cyclobutane-1-carboxylic acid] | 98% | 99% | – | – | – | – | – | – | – | –
C=C(C)[C@@H]1CC[C@]2(C(=O)N3CCCC3c3ncc(-c4ccc(OC)cc4)[nH]3)CC[C@]3(C)[C@H](CC[C@@H]4[C@@]5(C)CC[C@H](OC(=O)[C@H]6C[C@@H](C(=O)O)C6(C)C)C(C)(C)[C@@H]5CC[C@]43C)[C@@H]12 (some centres unmarked) [Compound 15] | 98% | 97% | – | – | – | – | 446 µg·h/mL | 286 µg·h/mL | 11400 ng/mL | 30.9 h
C=C(C)[C@@H]1CC[C@]2(C(=O)N3CCC[C@H]3c3ncc(-c4ccc(F)cc4)[nH]3)CC[C@]3(C)[C@H](CC[C@@H]4[C@@]5(C)CC[C@H](OC(=O)C6CC(C(=O)O)C6(C)C)C(C)(C)[C@@H]5CC[C@]43C)[C@@H]12 (stereo partly drawn) [Compound 35, 3-((((1R,3aS,5aR,5bR,7aR,9S,11aR,11bR,13aR,13bR)-3a-((S)-2-(5-(4-fluorophenyl)-1H-imidazol-2-yl)pyrrolidine-1-carbonyl)-5a,5b,8,8,11a-pentamethyl-1-(prop-1-en-2-yl)icosahydro-1H-cyclopenta[a]chrysen-9-yl)oxy)carbonyl)-2,2-dimethylcyclobutane-1-carboxylic acid] | – | – | 74 nM | – | – | – | 655 µg·h/mL | 410 µg·h/mL | 16000 ng/mL | 34.2 h
C=C(C)[C@@H]1CC[C@]2(C(=O)N3CCC[C@H]3c3ncc(-c4ccccc4)[nH]3)CC[C@]3(C)[C@H](CC[C@@H]4[C@@]5(C)CC[C@H](OC(=O)[C@@H]6C[C@H](C(=O)O)C6(C)C)C(C)(C)[C@@H]5CC[C@]43C)[C@@H]12 [Compound 27, (1S,3R)-2,2-dimethyl-3-((((1R,3aS,5aR,5bR,7aR,9S,11aR,11bR,13aR,13bR)-5a,5b,8,8,11a-pentamethyl-3a-((S)-2-(5-phenyl-1H-imidazol-2-yl)pyrrolidine-1-carbonyl)-1-(prop-1-en-2-yl)icosahydro-1H-cyclopenta[a]chrysen-9-yl)oxy)carbonyl)cyclobutane-1-carboxylic acid] | – | – | 11 nM | – | – | – | 535 µg·h/mL | 231 µg·h/mL | 10100 ng/mL | 38.1 h
CC1(C)C(C(=O)O)CC1C(=O)O[C@H]1CC[C@]2(C)[C@H]3CC[C@@H]4[C@H]5[C@H](C6(C)CC6)CC[C@]5(C(=O)N5CCC[C@H]5c5ncc(-c6ccccc6)[nH]5)CC[C@@]4(C)[C@]3(C)CC[C@H]2C1(C)C (stereo partly drawn) [Compound 43, 2,2-dimethyl-3-((((1R,3aS,5aR,5bR,7aR,9S,11aR,11bR,13aR,13bR)-5a,5b,8,8,11a-pentamethyl-1-(1-methylcyclopropyl)-3a-((S)-2-(5-phenyl-1H-imidazol-2-yl)pyrrolidine-1-carbonyl)icosahydro-1H-cyclopenta[a]chrysen-9-yl)oxy)carbonyl)cyclobutane-1-carboxylic acid] | – | – | 4.4 nM | – | – | – | 776 µg·h/mL | 294 µg·h/mL | 13900 ng/mL | 55.6 h
CC1(C)C(C(=O)O)CC1C(=O)O[C@H]1CC[C@]2(C)[C@H]3CC[C@@H]4[C@H]5[C@H](C6(C)CC6)CC[C@]5(C(=O)N5CCC[C@H]5c5ncc(-c6ccc(F)cc6)[nH]5)CC[C@@]4(C)[C@]3(C)CC[C@H]2C1(C)C (stereo partly drawn) [Compound 42, 3-((((1R,3aS,5aR,5bR,7aR,9S,11aR,11bR,13aR,13bR)-3a-((S)-2-(5-(4-fluorophenyl)-1H-imidazol-2-yl)pyrrolidine-1-carbonyl)-5a,5b,8,8,11a-pentamethyl-1-(1-methylcyclopropyl)icosahydro-1H-cyclopenta[a]chrysen-9-yl)oxy)carbonyl)-2,2-dimethylcyclobutane-1-carboxylic acid] | – | – | < 0.3 nM | – | – | – | 448 µg·h/mL | 254 µg·h/mL | 9300 ng/mL | 37.3 h
CC(C)(CC(=O)O[C@H]1CC[C@]2(C)[C@H]3CC[C@@H]4[C@H]5[C@H](C6(C)CC6)CC[C@]5(C(=O)N5CCC[C@H]5c5ncc(-c6cccs6)[nH]5)CC[C@@]4(C)[C@]3(C)CC[C@H]2C1(C)C)C(=O)O [Compound 38] | – | – | 8.4 nM | – | – | – | 119 µg·h/mL | 110 µg·h/mL | 7000 ng/mL | 12.3 h
C=C(C)[C@@H]1CC[C@]2(C(=O)N3CCC[C@H]3c3ncc(-c4ccc([N+](=O)[O-])cc4)[nH]3)CC[C@]3(C)[C@H](CC[C@@H]4[C@@]5(C)CC[C@H](OC(=O)[C@H]6C[C@@H](C(=O)O)C6(C)C)C(C)(C)[C@@H]5CC[C@]43C)[C@@H]12 [Compound 17] | 96% | 100% | – | – | – | – | – | – | – | –
C=C(C)[C@@H]1CC[C@]2(C(=O)N3CCC[C@H]3c3ncc(-c4ccc(O)cc4)[nH]3)CC[C@]3(C)[C@H](CC[C@@H]4[C@@]5(C)CC[C@H](OC(=O)C6CC(C(=O)O)C6(C)C)C(C)(C)[C@@H]5CC[C@]43C)[C@@H]12 (stereo partly drawn) [Compound 36, 3-((((1R,3aS,5aR,5bR,7aR,9S,11aR,11bR,13aR,13bR)-3a-((S)-2-(5-(4-hydroxyphenyl)-1H-imidazol-2-yl)pyrrolidine-1-carbonyl)-5a,5b,8,8,11a-pentamethyl-1-(prop-1-en-2-yl)icosahydro-1H-cyclopenta[a]chrysen-9-yl)oxy)carbonyl)-2,2-dimethylcyclobutane-1-carboxylic acid] | – | – | – | – | – | – | 518 µg·h/mL | 334 µg·h/mL | 10900 ng/mL | 30.3 h
CC1(C)C(C(=O)O)CC1C(=O)O[C@H]1CC[C@]2(C)[C@H]3CC[C@@H]4[C@H]5[C@H](C6(C)CC6)CC[C@]5(C(=O)N5CCC[C@H]5c5ncc(-c6cccnc6)[nH]5)CC[C@@]4(C)[C@]3(C)CC[C@H]2C1(C)C (stereo partly drawn) [Compound 32, 2,2-dimethyl-3-((((1R,3aS,5aR,5bR,7aR,9S,11aR,11bR,13aR,13bR)-5a,5b,8,8,11a-pentamethyl-1-(1-methylcyclopropyl)-3a-((S)-2-(5-(pyridin-3-yl)-1H-imidazol-2-yl)pyrrolidine-1-carbonyl)icosahydro-1H-cyclopenta[a]chrysen-9-yl)oxy)carbonyl)cyclobutane-1-carboxylic acid] | 100% | 100% | – | – | – | – | – | – | – | –
